Where two headings read alike, the source gives them in different places.
Key:
[1] = biological target: human norepinephrine transporter (Homo sapiens (Human), UniProt P23975); assay: Human NET (norepinephrine transporter) uptake assay; format: cell-based; conditions: for Ki: read-out: hNET Ki; for potency at hNET relative to the other enantiomer or epimer: comparison in words, used to assign configuration
Procedure: This protocol was designed to measure inhibition of uptake by the human norepinephrine transporter. […] The Assay Buffer (AB) was 1×HBSS and 0.02 M HEPES.
(§1) The HEK293F cells were transfected with the human norepinephrine transporter and frozen in 1 mL aliquots at about 1E+07 cells/mL. On the day of the experiment, the cells were removed from −80° C. or liquid nitrogen and thawed in a room temperature water bath. The cells were dilute to about 1-2E+06 with Freestyle medium. A 1 mL sample (1:2 dilution) was prepared, and the cells were counted. The cells were spun at 1100 rpm for 5 minutes, and the medium was aspirated off. The cells were resuspend in medium at 1.5E+06 cells/mL for about 60,000 cells per well. 40 μL of cells were dispensed per well in the Biocoat plates. The plates were spun at 1100 rpm for 1 minute to improve homogeneity of the cell layer and were incubated at 37° C. for a minimum of 3 hours.
(§2) 12 μL of test compound (10 mM) in DMSO was added to the wells, and nomifensine was used as a control. […] The neurotransmitter transporter dye was prepared in AB prior to use.
(§3) Due to the proprietary nature of the dye formulation, all dye concentrations were expressed as a percentage of the vendor-recommended dye reconstitution. Thus, the above calculations were valid when both [dye] and Km were expressed in the same units (%). Compounds were tested in triplicate (n=3).

[2] = biological target: human serotonin transporter (Homo sapiens (Human), UniProt P31645); assay: Human SERT (serotonin transporter) uptake assay; format: cell-based; conditions: read-out: hSERT Ki
Procedure: This protocol was designed to measure inhibition of uptake by the human serotonin transporter. […] The Assay Buffer (AB) was […] and 0.02 M HEPES.
as §1, with “serotonin” for “norepinephrine”
12 μL of test compound (10 mM) in DMSO was added to the wells, and nomifensine was used as a control. Fluoxetine (final assay concentration of 10 μM) was used for background signal. The neurotransmitter transporter dye was prepared in AB prior to use.
as §3

[3] = pKa of basic centres (Table 1); format: physicochemical
[4] = biological target: human dopamine transporter (Homo sapiens (Human), UniProt Q01959); assay: Human DAT (dopamine transporter) uptake assay; format: cell-based; conditions: read-out: hDAT Ki
Procedure: This protocol was designed to measure inhibition of uptake by the human dopamine transporter. […] The Assay Buffer (AB) was 1×HBSS and 0.02 M HEPES.
as §1, with “dopamine” for “norepinephrine”
as §2
Due to the proprietary nature of the dye formulation, all dye concentrations were expressed as a percentage of the vendor-recommended dye reconstitution. Thus, the above calculations were valid when both [dye] and K1 were expressed in the same units (%). Compounds were tested in triplicate (n=3).

[5] = first base, e.g., an aliphatic primary, secondary, or tertiary amine, read-out: pKa (Base 1)
[6] = second base in the same molecule (if present), read-out: pKa (Base 2)

human norepinephrine transporter, sequence (P23975 whole entry): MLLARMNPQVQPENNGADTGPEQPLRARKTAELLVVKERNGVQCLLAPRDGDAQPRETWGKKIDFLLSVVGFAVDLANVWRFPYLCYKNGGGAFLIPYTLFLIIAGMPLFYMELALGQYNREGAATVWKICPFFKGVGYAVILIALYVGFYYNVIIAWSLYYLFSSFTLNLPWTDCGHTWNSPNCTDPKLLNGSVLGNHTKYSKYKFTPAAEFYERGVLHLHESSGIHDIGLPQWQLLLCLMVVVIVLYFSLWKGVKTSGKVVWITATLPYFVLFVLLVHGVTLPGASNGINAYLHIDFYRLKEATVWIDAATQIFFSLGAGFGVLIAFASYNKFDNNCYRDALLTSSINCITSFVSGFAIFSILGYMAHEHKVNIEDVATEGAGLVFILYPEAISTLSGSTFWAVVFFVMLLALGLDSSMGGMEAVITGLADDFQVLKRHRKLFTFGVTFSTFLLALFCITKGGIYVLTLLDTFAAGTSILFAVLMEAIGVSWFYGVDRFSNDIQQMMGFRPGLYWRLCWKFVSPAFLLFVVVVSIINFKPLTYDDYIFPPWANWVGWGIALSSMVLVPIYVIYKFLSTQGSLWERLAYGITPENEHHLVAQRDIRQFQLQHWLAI
human serotonin transporter, sequence (P31645 whole entry): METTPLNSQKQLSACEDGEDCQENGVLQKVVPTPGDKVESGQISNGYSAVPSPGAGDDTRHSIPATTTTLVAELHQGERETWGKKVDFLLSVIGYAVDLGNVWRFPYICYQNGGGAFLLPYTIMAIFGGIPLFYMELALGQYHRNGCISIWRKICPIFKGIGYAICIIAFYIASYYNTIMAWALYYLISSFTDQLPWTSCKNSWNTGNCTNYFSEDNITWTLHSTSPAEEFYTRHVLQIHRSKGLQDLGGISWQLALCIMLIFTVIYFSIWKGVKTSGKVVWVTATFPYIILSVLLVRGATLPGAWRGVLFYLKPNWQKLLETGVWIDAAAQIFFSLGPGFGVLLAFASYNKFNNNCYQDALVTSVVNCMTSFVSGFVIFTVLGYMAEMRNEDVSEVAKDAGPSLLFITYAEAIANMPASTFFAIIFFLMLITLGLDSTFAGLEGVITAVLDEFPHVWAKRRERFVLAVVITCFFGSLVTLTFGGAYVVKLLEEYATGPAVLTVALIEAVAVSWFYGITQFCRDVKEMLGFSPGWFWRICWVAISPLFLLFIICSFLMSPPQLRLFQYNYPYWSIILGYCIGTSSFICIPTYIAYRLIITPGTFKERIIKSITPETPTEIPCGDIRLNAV
human dopamine transporter, sequence (Q01959 whole entry): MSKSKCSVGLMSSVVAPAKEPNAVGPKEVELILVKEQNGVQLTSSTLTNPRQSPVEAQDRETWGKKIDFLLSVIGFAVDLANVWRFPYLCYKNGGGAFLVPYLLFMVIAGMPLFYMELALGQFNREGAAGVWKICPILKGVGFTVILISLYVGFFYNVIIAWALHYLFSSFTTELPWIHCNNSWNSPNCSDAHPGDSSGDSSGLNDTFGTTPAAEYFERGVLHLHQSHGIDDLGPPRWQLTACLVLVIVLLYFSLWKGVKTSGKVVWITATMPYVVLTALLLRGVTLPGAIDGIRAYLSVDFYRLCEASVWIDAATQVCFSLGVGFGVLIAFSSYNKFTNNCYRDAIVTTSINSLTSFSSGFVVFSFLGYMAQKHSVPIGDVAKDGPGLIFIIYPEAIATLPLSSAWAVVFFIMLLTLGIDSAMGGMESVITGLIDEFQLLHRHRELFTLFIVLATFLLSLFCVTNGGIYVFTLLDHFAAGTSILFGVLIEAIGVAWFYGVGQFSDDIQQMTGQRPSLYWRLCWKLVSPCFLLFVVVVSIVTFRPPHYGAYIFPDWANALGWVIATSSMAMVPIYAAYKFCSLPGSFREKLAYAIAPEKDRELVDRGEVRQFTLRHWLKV

SMILES | Ki [2] [nM] | pKa [3, 5] | Ki [4] [nM] | potency at hNET relative to the other enantiomer or epimer [1] | further results
CNC[C@@H](c1ccc(Br)c(Cl)c1)[C@H](O)c1ccccc1 (racemic) [Compound 150] | 51.5 | 9.4 | 31.8 | – | Ki [1]: 6.3 nM
CNCC(Cc1ccccc1F)c1ccc2ccccc2c1 (stereo not shown) [Compound 17] | – | 10 | – | – | –
CNC[C@H](c1ccc2ccccc2c1)[C@H](OCC(=O)NCCOC)c1ccccc1 [Compound 51] | 2.6 | 9.6 | 141 | – | Ki [1]: 3.9 nM
CNCC(Cc1cccnc1)c1ccc(Cl)c(Cl)c1 (racemic) [Compound 80] | 34.7 | 9.6 | 52.2 | – | pKa [3, 6]: 5.2
CNC[C@H](c1ccc2ccccc2c1)[C@H](OCC(=O)N(C)OC)c1ccccc1 [Compound 71] | 4.4 | 9.6 | 17.9 | – | Ki [1]: 10 nM
NC[C@@H](c1ccc2ccccc2c1)[C@@H](O)c1ccccc1 [Compound 88] | – | 8.7 | 80.4 | – | –
CNC[C@H](c1ccc2ccccc2c1)[C@H](OCC(=O)NC1CCC1)c1ccccc1 [Compound 8] | 1.3 | 9.6 | 10.8 | – | Ki [1]: 1.4 nM
CNC[C@H](c1ccc(Br)cc1)[C@H](O)c1ccccc1 (racemic) [Compound 149] | 119 | 9.7 | 129 | – | Ki [1]: 7.7 nM
CNC[C@H](Cc1cccnc1)c1ccc(Cl)c(Cl)c1 [Compound 115] | 642 | 9.6 | 127 | – | pKa [3, 6]: 5.2
CNCCC(Oc1ccccc1OC)c1ccccc1 (stereo not shown) [compound 177] | 54.4 | – | – | – | –
CNC[C@H](c1ccc2ccccc2c1)[C@H](O[C@H](C)C(=O)N1CCCC1)c1ccccc1 [Compound 81] | 13 | 9.6 | 1360 | – | Ki [1]: 14.7 nM
CNC[C@H](c1ccc(OC)c(C)c1)[C@H](O)c1ccccc1 (racemic) [Compound 54] | 2.4 | 10 | 971 | – | Ki [1]: 4.5 nM
CNC[C@H](c1ccc2ccccc2c1)[C@H](OCC(=O)Nc1ccccc1)c1ccccc1 [Compound 45] | 2.4 | 9.7 | 8.9 | – | Ki [1]: 3.3 nM
NCC(Cc1ccccc1F)c1ccc2ccccc2c1 (stereo not shown) [Compound 137] | 31.8 | 9.3 | 77.7 | – | –
CNC[C@H](c1ccc2ccccc2c1)[C@H](OC)c1ccccc1 [Compound 46] | 24.2 | 9.7 | 37.5 | – | Ki [1]: 3.4 nM
CNC[C@H](c1ccc2ccccc2c1)[C@H](O)c1cccs1 [Compound 47] | 2.2 | 9.7 | 15 | – | –
CNC[C@H](Cc1ccccc1F)c1ccc2ccccc2c1 [Compound 138] | – | 10 | – | – | –
NCC(c1ccc2ccccc2c1)[C@@H](O)c1ccccc1 (stereo partly shown) [Compound 91] | – | 8.7 | 249 | – | –
CNC[C@H](c1ccc2ccccc2c1)[C@H](OCC(=O)N1CC[C@H](OC)C1)c1ccccc1 [Compound 131] | – | 9.6 | – | – | –
CNC[C@@H](c1ccc(Cl)c(Cl)c1)[C@@H](O)c1cccc([S+](C)[O-])c1 (single isomer, unassigned) [compound 116] | – | – | – | equipotent | –
NC[C@H](c1ccc2ccccc2c1)[C@@H](O)c1ccncc1Cl [compound 95] | – | – | – | higher inhibitory activity | –
CNCC(CCc1ccccc1)[C@@H](O)c1ccccc1 (stereo partly shown) [compound 147] | – | – | – | lower potency | –
CNC[C@@H](c1ccc(Cl)c(Cl)c1)[C@H](O)c1cccc(NC(C)=O)c1 [compound 98] | – | – | – | less potent | –
CNC[C@H](c1ccc(Cl)c(Cl)c1)[C@@H](O)c1ccccc1 [compound 70] | – | – | – | more potent | –

SMILES | Ki [2] [nM] | pKa [3, 5] | Ki [4] [nM] | potency at hNET relative to the other enantiomer or epimer [1] | further results
CNC[C@H](c1ccc(Cl)c(Cl)c1)[C@@H](O)c1ccccc1SC [compound 97] | – | – | – | more potent | –
O[C@@H](c1ccccc1)[C@@H](CNCC(F)(F)F)c1ccc2ccccc2c1 (single isomer, unassigned) [compound 130] | – | – | – | equipotent | –
CNC[C@@H](c1ccc(Cl)c(Cl)c1)[C@@H](O)c1ccccc1 [compound 114] | – | – | – | weak hNET potency | –
CNC[C@H](c1ccc(Br)c(Cl)c1)[C@@H](O)c1ccccc1 [compound 21] | – | – | – | more potent | –
CNC[C@H](c1ccc(Cl)c(Cl)c1)[C@@H](O)c1cccnc1OC [compound 104] | – | – | – | higher inhibitory activity | –
CNC[C@H](c1ccc2ccccc2c1)[C@H](O)c1cc(F)cc(F)c1 (single isomer, unassigned) [compound 37] | – | – | – | more potent | –
CNC[C@H](c1ccc(Cl)c(Cl)c1)[C@H](O)c1cccc(S(C)(=O)=O)c1 [compound 101] | – | – | – | higher potency | –
CNC[C@@H](c1ccc(Cl)c(Cl)c1)[C@@H](O)c1cccc(NS(=O)(=O)C(F)(F)F)c1 [compound 121] | – | – | – | lower potency | –
CNC[C@H](C[C@H](O)c1ccccc1)c1ccc2ccccc2c1 [compound 93] | – | – | – | less potent | –
CNC[C@@H](c1ccc2ccccc2c1)[C@@H](O)c1cccs1 [Compound 144] | 10 | 9.7 | 113 | – | –
CNCC(Cc1cccnc1)c1ccc2ccccc2c1 (stereo not shown) [compound 48] | – | – | – | more potent | –
CNC[C@H](c1ccc(Cl)c(Cl)c1)[C@H](O)c1cccc([N+](=O)[O-])c1 [compound 102] | – | – | – | more potent | –
CNC[C@@H](c1ccc(Cl)c(Cl)c1)[C@@H](O)c1ccccc1[S+](C)[O-] (stereo partly shown) [compound 128] | – | – | – | less potent | –
CNC[C@H](c1ccc(Cl)c(Cl)c1)[C@@H](O)c1ccccc1I [compound 152] | – | – | – | higher potency | –
NC[C@@H](c1ccc2ccccc2c1)[C@@H](O)c1ccc(Cl)nc1 [compound 126] | – | – | – | lower potency | –
CNCC(Cc1ccccc1F)c1ccc2ccccc2c1 (racemic) [Compound 36] | – | 10 | – | – | –
NC[C@@H](Cc1ccccc1O)c1ccc2ccccc2c1 [compound 133] | – | – | – | more potent | –
CNC[C@@H](c1ccc(Cl)c(Cl)c1)[C@@H](O)c1cccc(OC)n1 [compound 157] | – | – | – | lower potency | –
CNC[C@@H](Cc1cccnc1)c1ccc(Cl)c(Cl)c1 [Compound 59] | 35.6 | 9.6 | 112 | – | pKa [3, 6]: 5.2
CNC[C@@H](c1ccc(Cl)c(Cl)c1)[C@@H](O)c1cncc(OC)c1 [compound 109] | – | – | – | lower potency | –
CNC[C@H](c1ccc(Cl)c(Cl)c1)[C@@H](O)c1ccccc1[N+](=O)[O-] [compound 65] | – | – | – | more potent | –
CNCC(Cc1ccccc1O)c1ccc2ccccc2c1 (stereo not shown) [compound 52] | – | – | – | more potent | –
CNC[C@@H](c1ccc(Cl)c(Cl)c1)[C@@H](O)c1cccc(N2CCOCC2)c1 [compound 125] | – | – | – | lower inhibitory activity | –

Source: patent US9944618B2, “Inhibiting neurotransmitter reuptake” (Mayo Foundation for Medical Education and Research, priority 2013, dated 2018)
